Values after ≈ are worked out from the molar mass of the structure shown. Values joined by “and” are separate entries in the source; they are usually repeats but may differ in a detail not shown here. Identical values can stand only once. Like-named read-outs stand apart in the source and are kept apart here.
Experiments:
[1] = target: Enoyl reducase (ENR) from Bacillus anthracis (BaENR) (Bacillus anthracis, UniProt A0A6L8PBX8); assay: biochemical; conditions: IC50
ΔANR B. anthracis [2] = assay: microbe, parasite or virus in culture; format: cell-based, Bacillus anthracis
[3] = tested on: Sterne strain B. anthracis; assay: microbe, parasite or virus in culture; format: cell-based, Bacillus anthracis; conditions: for MBC / MIC: Bacillus anthracis
[4] = tested on: Staphylococcus aureus (ATCC strain 29213); assay: microbe, parasite or virus in culture; format: cell-based; conditions: ATCC29213|MSSA
[5] = tested on: methicillin–resistant Staphylococcus aureus (ATCC strain 43300); assay: microbe, parasite or virus in culture; format: cell-based
[6] = tested on: Enterococcus fecalis (ATCC strain 29212); assay: microbe, parasite or virus in culture; format: cell-based; conditions: for MBC / MIC: Enterococcus, ATCC29212
[7] = tested on: vancomycin–resistant Enterococcus (VRE) (ATCC strain 51299); assay: microbe, parasite or virus in culture; format: cell-based; conditions: for MBC / MIC: Enterococcus, ATCC51299|VRE
[8] = tested on: Listeria monocytogenes (10403S); assay: microbe, parasite or virus in culture; format: cell-based; conditions: for MBC / MIC: Listeria monocytogenes
[9] = tested on: Pseudomonas aeruginosa (ATCC strain 27853); assay: microbe, parasite or virus in culture; format: cell-based; conditions: ATCC27853
[10] = tested on: Klebsiella pneumoniae (ATCC strain 700603); assay: microbe, parasite or virus in culture; format: cell-based; conditions: for MBC / MIC: Klebsiella pneumoniae, ATCC700603
[11] = tested on: Escherchia coli (ATCC strain 25922); assay: microbe, parasite or virus in culture; format: cell-based; conditions: for MBC / MIC: Escherichia coli, ATCC25922
MHS = assay: cells; format: cell-based; conditions: read-out: EC50 against MHS
HeLa cells [12] = assay: cells; conditions: Homo sapiens, read-out: EC50 against HeLa cells
HeLa cells [13] = conditions: human
ΔANR B. anthracis [14] = conditions: cited from earlier work
ENR in S. aurues = conditions: cited from earlier work
PfENR = conditions: cited from earlier work
ENR in E. coli = conditions: cited from earlier work
[15] = Staphylococcus aureus, ATCC43300|MRSA

Enoyl reducase (ENR) from Bacillus anthracis (BaENR), sequence (A0A6L8PBX8 1-256): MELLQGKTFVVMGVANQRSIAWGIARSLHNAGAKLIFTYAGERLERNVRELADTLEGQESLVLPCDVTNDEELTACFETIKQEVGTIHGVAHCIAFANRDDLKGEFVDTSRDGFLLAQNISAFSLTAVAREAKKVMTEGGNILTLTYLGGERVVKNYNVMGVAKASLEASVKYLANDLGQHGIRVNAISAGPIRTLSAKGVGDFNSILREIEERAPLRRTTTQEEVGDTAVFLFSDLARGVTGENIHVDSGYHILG

SMILES	IC50 [1]	MBC (ΔANR B. anthracis [2]; Bacillus anthracis) [µg/mL]	MBC [3] [µg/mL]	MIC [3] [µg/mL]	MBC [4] [µg/mL]	MIC [4] [µg/mL]	MIC [5] [µg/mL]	MBC [5, 15] [µg/mL]	MIC [5, 15] [µg/mL]	MBC [6] [µg/mL]	MIC [6] [µg/mL]	MBC [7] [µg/mL]	MIC [7] [µg/mL]	MBC [8] [µg/mL]	MIC [8] [µg/mL]	MIC [9] [µg/mL]	MBC [10] [µg/mL]	MIC [10] [µg/mL]	MBC [11] [µg/mL]	MIC [11] [µg/mL]	also measured
O=[N+]([O-])c1ccc(Oc2ccc(Cl)cc2O)c(Cl)c1 [Compound 6, 5-Chloro-2-(2-chloro-4-nitrophenoxy)phenol]	290 nM and 300 nM	3.1 ± 1.1 (≈ 10.3 µM)	3.9 ± 0.8 (≈ 13 µM)	1.9 ± 0.3 (≈ 6.33 µM)	2.9 ± 1.2 (≈ 9.66 µM)	0.1 ± 0.1 (≈ 0.333 µM)	0.3 ± 0.3 (≈ 1 µM)	0.4 ± 0.1 (≈ 1.33 µM)	0.3 (≈ 1 µM)	31.3 ± 6.3 (≈ 104 µM)	4.4 ± 0.8 (≈ 14.7 µM)	37.5 ± 12.5 (≈ 125 µM)	5.7 ± 0.6 (≈ 19 µM)	14.1 ± 3.9 (≈ 47 µM)	2.8 ± 0.3 (≈ 9.33 µM)	> 25	12.5 (≈ 41.7 µM)	1.8 ± 0.4 (≈ 6 µM)	12.5 (≈ 41.7 µM)	0.3 ± 0.1 (≈ 1 µM)	EC50 (MHS): 9.9 µg/mL (≈ 33 µM); EC50 (HeLa cells [12]): 29.3 µg/mL (≈ 97.6 µM)
CCCc1ccc(Oc2ccc([N+](=O)[O-])cc2Cl)c(O)c1 [Compound 11, 2-(2-Chloro-4-nitrophenoxy)-5-propylphenol]	500 nM	3.9 ± 0.8 (≈ 12.7 µM)	3.9 ± 0.8 (≈ 12.7 µM)	1.9 (≈ 6.17 µM)	2.9 ± 1.2 (≈ 9.42 µM)	0.1 ± 0.1 (≈ 0.325 µM)	0.3 ± 0.3 (≈ 0.975 µM)	0.5 ± 0.2 (≈ 1.62 µM)	0.3 (≈ 0.975 µM)	12.5 (≈ 40.6 µM)	4.4 ± 0.5 (≈ 14.3 µM)	15.6 ± 3.1 (≈ 50.7 µM)	5.7 ± 0.3 (≈ 18.5 µM)	14.1 ± 3.9 (≈ 45.8 µM)	2.8 ± 0.9 (≈ 9.1 µM)	> 25	8.3 ± 2.1 (≈ 27 µM)	1.8 ± 0.9 (≈ 5.85 µM)	1.2 ± 0.4 (≈ 3.9 µM)	0.3 ± 0.2 (≈ 0.975 µM)	MBC/MIC (ΔANR B. anthracis [2]): 1.8; MIC (ΔANR B. anthracis [2]): 2.2 ± 0.0 µg/mL (≈ 7.15 µM); MIC (ΔANR B. anthracis [2]; Bacillus anthracis): 1.9 to 3.1 µg/mL (≈ 6.17 to 10.1 µM); MBC/MIC [3]: 2.1; MBC/MIC [5]: 1.9; MBC/MIC [6]: 2.9; MBC/MIC [7]: 2.7; MBC/MIC [8]: 5.0; MBC/MIC [10]: 4.7; MBC/MIC [11]: 4.5; EC50 (MHS): 22.6 µg/mL (≈ 73.4 µM); EC50/MIC ratio (HeLa cells [13]): 15–20; EC50 (HeLa cells [12]): 41.4 µg/mL (≈ 135 µM)
Oc1cc(Cl)ccc1Oc1ccc(Cl)cc1Cl [Triclosan]	–	–	–	–	–	–	–	–	–	–	–	–	–	–	–	–	–	–	–	–	MIC (ΔANR B. anthracis [2]; Bacillus anthracis): 3.1 µg/mL (≈ 10.7 µM); MIC (ΔANR B. anthracis [14]): 3.1 µg/mL (≈ 10.7 µM); IC50 (ENR in S. aurues): 70 nM; IC50 (PfENR): 73 nM; IC50 (ENR in E. coli): 7250 nM

Source: paper PMC2693028 (ChemMedChem, 2008)
